In ChEMBL document CHEMBL1909046, “DrugMatrix in vitro pharmacology data”:
Where a SMILES comes first, the peptide text is derived from it. Bridges are numbered along the chain shown (N, C = ends). [ ]: non-standard residue; d: D form. The star is where a group is joined. Threoninol(2S,3R) = C[C@@H](O)[C@H](CO)N*

Tests used:
[1] = DRUGMATRIX: GABAA, Flunitrazepam, Central radioligand binding (ligand: [3H] Flunitrazepam); format: cell membranes, Rattus norvegicus, Wistar, Brain, Membrane; details: Not Active = under 50% inhibition at 10 µM
[2] = DRUGMATRIX: ATPase, Na+/K+ enzyme inhibition (substrate: ATP); format: tissue-based, Sus scrofa, Heart; details: Not Active = under 50% inhibition at 10 µM
[3] = molecular target: T1, Cholecystokinin receptor type A (Homo sapiens, UniProt P32238); format: cell membranes, Membrane; details: 1321-n1; note: in other assays of this panel Not Active means under 50% inhibition at 10 µM
T1 sequence (P32238 whole entry): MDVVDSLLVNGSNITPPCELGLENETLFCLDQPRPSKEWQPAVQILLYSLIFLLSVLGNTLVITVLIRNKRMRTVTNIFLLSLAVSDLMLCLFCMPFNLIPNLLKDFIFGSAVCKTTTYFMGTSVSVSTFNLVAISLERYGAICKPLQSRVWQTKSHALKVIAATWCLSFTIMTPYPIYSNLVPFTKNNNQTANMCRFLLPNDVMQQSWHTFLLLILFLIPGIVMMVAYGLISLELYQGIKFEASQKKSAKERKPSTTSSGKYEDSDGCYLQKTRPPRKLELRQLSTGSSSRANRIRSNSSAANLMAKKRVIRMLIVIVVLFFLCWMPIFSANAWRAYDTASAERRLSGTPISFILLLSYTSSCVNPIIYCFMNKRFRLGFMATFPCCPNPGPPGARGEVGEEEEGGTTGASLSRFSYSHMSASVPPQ

[4] = molecular target: T2, Cysteinyl leukotriene receptor 1 (Homo sapiens, UniProt Q9Y271); format: cell membranes, CHO-K1, Membrane; details: cho-k1; note: in other assays of this panel Not Active means under 50% inhibition at 10 µM
T2 sequence (Q9Y271 whole entry): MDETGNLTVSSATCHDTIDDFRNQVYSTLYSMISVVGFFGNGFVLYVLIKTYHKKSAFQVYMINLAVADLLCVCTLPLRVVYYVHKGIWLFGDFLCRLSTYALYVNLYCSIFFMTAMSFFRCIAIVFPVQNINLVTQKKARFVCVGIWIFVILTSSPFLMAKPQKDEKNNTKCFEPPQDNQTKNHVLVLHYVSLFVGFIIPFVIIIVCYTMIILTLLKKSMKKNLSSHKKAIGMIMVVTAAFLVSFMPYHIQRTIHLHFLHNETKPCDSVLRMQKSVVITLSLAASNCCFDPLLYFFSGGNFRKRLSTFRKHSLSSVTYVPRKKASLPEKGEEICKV

Cytochrome P450 2C9 = Cytochrome P450 2C9 (Homo sapiens, UniProt P11712); details: bti-tn-5b1-4; note: in other assays of this panel Not Active means under 50% inhibition at 10 µM
Carbonic anhydrase 2 = Carbonic anhydrase 2 (Homo sapiens, UniProt P00918); assay: DRUGMATRIX: Carbonic Anhydrase II enzyme inhibition (substrate: 4-Nitrophenyl acetate (4-NPA)); format: tissue-based, Erythrocyte; details: erythrocyte; Not Active = under 50% inhibition at 10 µM
[5] = molecular target: Epidermal growth factor receptor (Homo sapiens, UniProt P00533); assay: DRUGMATRIX: Protein Tyrosine Kinase, EGF Receptor enzyme inhibition (substrate: Poly(Glu:Tyr)); format: cell-based, Insect cells; details: insect cells; Not Active = under 50% inhibition at 10 µM
Sequence of Epidermal growth factor receptor (P00533 whole entry): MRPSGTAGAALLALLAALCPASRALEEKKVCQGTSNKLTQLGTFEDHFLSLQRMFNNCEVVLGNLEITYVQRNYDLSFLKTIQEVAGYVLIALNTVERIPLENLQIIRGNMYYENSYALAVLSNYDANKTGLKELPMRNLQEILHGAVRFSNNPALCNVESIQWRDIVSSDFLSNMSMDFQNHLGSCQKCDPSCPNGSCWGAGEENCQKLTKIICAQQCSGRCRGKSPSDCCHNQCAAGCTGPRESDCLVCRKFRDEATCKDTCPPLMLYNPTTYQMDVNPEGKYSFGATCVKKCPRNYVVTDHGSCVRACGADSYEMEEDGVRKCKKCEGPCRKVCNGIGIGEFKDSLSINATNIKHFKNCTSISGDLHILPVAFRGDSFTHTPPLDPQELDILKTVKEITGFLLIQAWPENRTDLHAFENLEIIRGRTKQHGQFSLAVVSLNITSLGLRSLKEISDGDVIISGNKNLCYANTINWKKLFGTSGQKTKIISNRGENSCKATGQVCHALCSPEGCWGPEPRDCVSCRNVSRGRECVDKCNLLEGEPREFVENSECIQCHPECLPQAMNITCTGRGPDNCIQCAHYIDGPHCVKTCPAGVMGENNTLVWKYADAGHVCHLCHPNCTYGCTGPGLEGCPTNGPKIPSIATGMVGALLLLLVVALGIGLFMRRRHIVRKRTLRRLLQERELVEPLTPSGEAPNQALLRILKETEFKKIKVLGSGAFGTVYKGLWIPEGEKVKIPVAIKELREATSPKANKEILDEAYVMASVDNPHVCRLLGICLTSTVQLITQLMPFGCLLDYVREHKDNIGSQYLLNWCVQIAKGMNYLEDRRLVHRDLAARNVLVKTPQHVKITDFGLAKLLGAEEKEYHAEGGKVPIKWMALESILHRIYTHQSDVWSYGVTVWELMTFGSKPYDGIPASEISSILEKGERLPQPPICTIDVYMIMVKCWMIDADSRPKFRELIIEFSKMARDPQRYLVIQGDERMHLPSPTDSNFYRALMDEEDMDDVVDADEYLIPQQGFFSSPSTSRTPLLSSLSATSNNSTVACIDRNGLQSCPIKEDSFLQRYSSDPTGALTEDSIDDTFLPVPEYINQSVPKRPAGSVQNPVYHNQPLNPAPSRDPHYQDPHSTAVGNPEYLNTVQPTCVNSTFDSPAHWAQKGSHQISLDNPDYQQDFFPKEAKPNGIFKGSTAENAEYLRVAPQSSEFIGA

Sequence of Cytochrome P450 2C9 (P11712 whole entry): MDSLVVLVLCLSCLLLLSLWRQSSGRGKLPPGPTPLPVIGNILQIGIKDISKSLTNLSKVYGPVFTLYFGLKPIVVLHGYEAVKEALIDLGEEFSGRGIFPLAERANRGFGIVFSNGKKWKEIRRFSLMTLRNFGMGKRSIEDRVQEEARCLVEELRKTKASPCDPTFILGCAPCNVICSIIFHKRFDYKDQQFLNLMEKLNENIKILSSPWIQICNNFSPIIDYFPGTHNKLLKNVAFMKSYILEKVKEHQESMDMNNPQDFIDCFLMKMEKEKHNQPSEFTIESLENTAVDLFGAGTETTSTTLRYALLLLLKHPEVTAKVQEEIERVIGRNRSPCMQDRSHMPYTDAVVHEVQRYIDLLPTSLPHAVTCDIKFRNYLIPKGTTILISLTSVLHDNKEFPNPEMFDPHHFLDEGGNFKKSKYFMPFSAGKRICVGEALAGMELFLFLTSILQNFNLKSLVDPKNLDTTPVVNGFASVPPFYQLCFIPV

S=C=Nc1cccc2ccccc12 [1-NAPHTHYLISOTHIOCYANATE]
Not Active: IC50 [1] | Ki [1] | IC50 [2] | Ki [2] | IC50 [3] | IC50 [4] | IC50 (Cytochrome P450 2C9) | Ki (Cytochrome P450 2C9) | IC50 (Carbonic anhydrase 2) | IC50 [5]

C[C@@H](O)[C@H](CO)NC(=O)[C@@H]1CSSC[C@H](NC(=O)[C@H](N)Cc2ccccc2)C(=O)N[C@@H](Cc2ccccc2)C(=O)N[C@H](Cc2c[nH]c3ccccc23)C(=O)N[C@@H](CCCCN)C(=O)N[C@@H]([C@@H](C)O)C(=O)N1 (H-[dF]CF[dW]KTC-{Threoninol(2S,3R)}; disulfide 2-7)
Not Active: IC50 [1] | Ki [1] | IC50 [2] | Ki [2] | IC50 [3] | IC50 [4] | IC50 (Cytochrome P450 2C9) | Ki (Cytochrome P450 2C9) | IC50 (Carbonic anhydrase 2) | IC50 [5]

Cc1nccn1CC1CCc2c(c3ccccc3n2C)C1=O (centres undefined) [ONDANSETRON]
Not Active: IC50 [1] | Ki [1] | IC50 [2] | Ki [2] | IC50 [3] | IC50 [4] | IC50 (Cytochrome P450 2C9) | Ki (Cytochrome P450 2C9) | IC50 (Carbonic anhydrase 2) | IC50 [5]

C#C[C@]1(O)CC[C@H]2[C@@H]3CCc4cc(OC)ccc4[C@H]3CC[C@@]21C [MESTRANOL]
Not Active: IC50 [1] | Ki [1] | IC50 [2] | Ki [2] | IC50 [3] | IC50 [4] | IC50 (Cytochrome P450 2C9) | Ki (Cytochrome P450 2C9) | IC50 (Carbonic anhydrase 2) | IC50 [5]

COc1cc2c(c3oc(=O)c4c(c13)CCC4=O)[C@@H]1C=CO[C@@H]1O2 [AFLATOXIN]
Not Active: IC50 [1] | Ki [1] | IC50 [2] | Ki [2] | IC50 [3] | Ki [3] | IC50 [4] | Ki [4] | IC50 (Cytochrome P450 2C9) | Ki (Cytochrome P450 2C9) | IC50 (Carbonic anhydrase 2) | Ki (Carbonic anhydrase 2) | IC50 [5] | Ki [5]

CC1(C)O[C@@H]2C[C@H]3[C@@H]4C[C@H](F)C5=CC(=O)CC[C@]5(C)[C@H]4[C@@H](O)C[C@]3(C)[C@]2(C(=O)CO)O1 [FLURANDRENOLIDE]
Not Active: IC50 [1] | Ki [1] | IC50 [2] | Ki [2] | IC50 [3] | IC50 [4] | IC50 (Cytochrome P450 2C9) | Ki (Cytochrome P450 2C9) | IC50 (Carbonic anhydrase 2) | IC50 [5]

CC1(C)O[C@@H]2C[C@H]3[C@@H]4C[C@H](F)C5=CC(=O)C=C[C@]5(C)[C@@]4(F)[C@@H](O)C[C@]3(C)[C@]2(C(=O)CO)O1 [FLUOCINOLONE ACETONIDE]
Not Active: IC50 [1] | Ki [1] | IC50 [2] | Ki [2] | IC50 [3] | IC50 [4] | IC50 (Cytochrome P450 2C9) | Ki (Cytochrome P450 2C9) | IC50 (Carbonic anhydrase 2) | IC50 [5]

CC(C(=O)O)c1cccc(C(=O)c2ccccc2)c1 (centres undefined) [KETOPROFEN]
Not Active: IC50 [1] | Ki [1] | IC50 [2] | Ki [2] | IC50 [3] | IC50 [4] | IC50 (Cytochrome P450 2C9) | Ki (Cytochrome P450 2C9) | IC50 (Carbonic anhydrase 2) | IC50 [5]

O=c1ccc2ccccc2o1 [COUMARIN]
Not Active: IC50 [1] | Ki [1] | IC50 [2] | Ki [2] | IC50 [3] | IC50 [4] | IC50 (Cytochrome P450 2C9) | Ki (Cytochrome P450 2C9) | IC50 (Carbonic anhydrase 2) | IC50 [5]

CN1C(=O)COc2c(C(=O)NC3CN4CCC3CC4)cc(Cl)cc21 (centres undefined) [AZASETRON]
Not Active: IC50 [1] | Ki [1] | IC50 [2] | Ki [2] | IC50 [3] | IC50 [4] | IC50 (Cytochrome P450 2C9) | Ki (Cytochrome P450 2C9) | IC50 (Carbonic anhydrase 2) | IC50 [5]

C[C@H]1C[C@H]2[C@@H]3CCC4=CC(=O)C=C[C@]4(C)[C@@]3(Cl)[C@@H](O)C[C@]2(C)[C@@]1(O)C(=O)CO [BECLOMETHASONE]
Not Active: IC50 [1] | Ki [1] | IC50 [2] | Ki [2] | IC50 [3] | IC50 [4] | IC50 (Cytochrome P450 2C9) | Ki (Cytochrome P450 2C9) | IC50 (Carbonic anhydrase 2) | IC50 [5]

COc1cccc2c1C(=O)c1c(O)c3c(c(O)c1C2=O)C[C@@](O)(C(=O)CO)C[C@@H]3O[C@H]1C[C@H](N)[C@@H](O)[C@H](C)O1 [EPIRUBICIN]
Not Active: IC50 [1] | Ki [1] | IC50 [2] | Ki [2] | IC50 [3] | IC50 [4] | IC50 (Cytochrome P450 2C9) | Ki (Cytochrome P450 2C9) | IC50 (Carbonic anhydrase 2) | IC50 [5]

C[C@](O)(CS(=O)(=O)c1ccc(F)cc1)C(=O)Nc1ccc(C#N)c(C(F)(F)F)c1 [(R)-BICALUTAMIDE]
Not Active: IC50 [1] | Ki [1] | IC50 [2] | Ki [2] | IC50 [3] | IC50 [4] | IC50 (Cytochrome P450 2C9) | Ki (Cytochrome P450 2C9) | IC50 (Carbonic anhydrase 2) | IC50 [5]

COc1ccc2c(c1)[C@]13CCCC[C@@H]1[C@H](C2)N(C)CC3 [DEXTROMETHORPHAN]
Not Active: IC50 [1] | Ki [1] | IC50 [2] | Ki [2] | IC50 [3] | IC50 [4] | IC50 (Cytochrome P450 2C9) | Ki (Cytochrome P450 2C9) | IC50 (Carbonic anhydrase 2) | IC50 [5]

COP(=O)(OC)OC=C(Cl)Cl [DICHLORVOS]
Not Active: IC50 [1] | Ki [1] | IC50 [2] | Ki [2] | IC50 [3] | IC50 [4] | IC50 (Cytochrome P450 2C9) | Ki (Cytochrome P450 2C9) | IC50 (Carbonic anhydrase 2) | IC50 [5]

CCN[C@@H]1C[C@H](N)[C@@H](O[C@H]2OC(CN)=CC[C@H]2N)[C@H](O)[C@H]1O[C@H]1OC[C@](C)(O)[C@H](NC)[C@H]1O [NETILMICIN]
Not Active: IC50 [1] | Ki [1] | IC50 [2] | Ki [2] | IC50 [3] | IC50 [4] | IC50 (Cytochrome P450 2C9) | Ki (Cytochrome P450 2C9) | IC50 (Carbonic anhydrase 2) | IC50 [5]

O=C1CC2(CCCC2)CC(=O)N1CCCCN1CCN(c2ncccn2)CC1 [BUSPIRONE]
Not Active: IC50 [1] | Ki [1] | IC50 [2] | Ki [2] | IC50 [3] | IC50 [4] | IC50 (Cytochrome P450 2C9) | Ki (Cytochrome P450 2C9) | IC50 (Carbonic anhydrase 2) | IC50 [5]

Nc1ccn([C@@H]2CS[C@H](CO)O2)c(=O)n1 [LAMIVUDINE]
Not Active: IC50 [1] | Ki [1] | IC50 [2] | Ki [2] | IC50 [3] | IC50 [4] | IC50 (Cytochrome P450 2C9) | Ki (Cytochrome P450 2C9) | IC50 (Carbonic anhydrase 2) | IC50 [5]

COc1ccc2c(c1)c(CC(=O)O)c(C)n2C(=O)c1ccc(Cl)cc1 [INDOMETHACIN]
Not Active: IC50 [1] | Ki [1] | IC50 [2] | Ki [2] | IC50 [3] | IC50 [4] | IC50 (Cytochrome P450 2C9) | Ki (Cytochrome P450 2C9) | IC50 (Carbonic anhydrase 2) | IC50 [5]

CC(C)[C@H]1CC[C@H](C(=O)N[C@H](Cc2ccccc2)C(=O)O)CC1 [NATEGLINIDE]
Not Active: IC50 [1] | Ki [1] | IC50 [2] | Ki [2] | IC50 [3] | IC50 [4] | IC50 (Cytochrome P450 2C9) | Ki (Cytochrome P450 2C9) | IC50 (Carbonic anhydrase 2) | IC50 [5]
